Drawing on patent US11952361B1, “2-(1-(3-(dimethylamino)propyl)-4,5-diphenyl-1H-imidazol-2-yl) pyridin-3-ol as an antitumor and antimicrobial compound” (KING FAISAL UNIVERSITY, priority 2023, dated 2024), this text covers antiproliferative activity and melting point for one compound.

For orientation: melting point means the temperature, or range, at which the solid turns liquid.

The subject of series [1] is human prostate cancer cells (PC3). The experiment in a line: Cytotoxicity by SRB assay, PC3 cells. The format is cell-based. The conditions noted are these: 0.01 μM to 100 μM, 72 h. As for the experimental part: (§1) The human prostate cancer cells (PC3) and human osteosarcoma cells (MG-63) were obtained from Nawah Scientific Inc. (Mokatam, Cairo, Egypt) and cultured in DMEM (Dulbecco's modified eagle's medium), Gibco, USA, supplemented with fetal bovine serum (FBS) at a concentration of 10% and […]. of penicillin and streptomycin (PS). The Cells were incubated at 37° C. in a humidified environment that contained 5% CO2.
(§2) Cells were seeded in 96-well plates as aliquots of 100 μL cell suspension and incubated in a complete media for 24 h. afterward, cells were treated with 2-(1-(3-(Dimethylanino)propyl)-4,5-diphenyl-1H-imidazol-2-yl)pyridin-3-ol at diverse concentrations ranging from 0.01 μM to 100 μM for 72 h. Then, cells were fixed at 4° C. for one hour with 150 μL of 10% trichloroacetic acid (TCA). After washing the cells five times with distilled water, 70 μL of sulforhodamine (SRB) solution (0.4% w/v) was added and incubated for 10 min at room temperature in a dark place. […] Then, 150 μL of Tris pH 10.5 (10 mM) was added, and the absorbance was measured at 540 nm using a BMG LABTECH®-FiLJOstar Omega microplate reader (Ortenberg, Germany). Half maximal inhibitory concentrations (IC50) values were calculated for each experiment using GraphPad Prism 6 software. […]
(§3) The inhibition was calculated using the following equation: Inhibition %=100−Average Viability
A general note: In SRB staining, fixed cells bind dye roughly in proportion to their protein.

The test system of series [2] is human osteosarcoma cells (MG-63). The experiment in a line: Cytotoxicity by SRB assay, MG-63 cells. The format is cell-based. The conditions noted are these: 0.01 μM to 100 μM, 72 h. The procedure: as §1, §2, §3

`CN(C)CCCn1c(-c2ncccc2O)nc(-c2ccccc2)c1-c1ccccc1` [2-(1-(3-(Dimethylamino)propyl)-4,5-diphenyl-1H-imidazol-2-yl)pyridin-3-ol] returned a melting point of 133 to 135 °C. In series [1], the antiproliferative activity result was “excellent antiproliferative activities”. For the same compound, the antiproliferative activity entry in series [2] was “excellent antiproliferative activities”.
